Measured values: publication PMC3849129 (International journal of antimicrobial agents, 2013)
Positions of bridges follow the written chain, without caps; N, C: chain ends. Non-standard residues stand in square brackets, D forms with d. Residues, ends and D or L forms follow the SMILES beside them. *: point of attachment. Heptanoyl(6-Me) = CC(C)CCCCC(=O)*; X1 = CC[C@H](C)CCCCC(=O)*; Octanoyl = CCCCCCCC(=O)*; Dab = NCC[C@H](N)C(=O)O

Tests used:
[1] = Epithelial lining fluid; type: in vivo, Swiss Webster mice; conditions: for Time post dose up to which component could be quantified in ELF: mouse, in vivo
[2] = system: PA 9019; conditions: PA 9019, MDR bloodstream isolate; previously determined; cited from earlier work
[3] = system: Pseudomonas aeruginosa ATCC 27853 (PA 27853); conditions: previously determined; cited from earlier work
[4] = Serum pharmacokinetics after intravenous administration in mice; conditions: female, ND4 Swiss Webster, mouse, in vivo, 3 mg/kg

## CC[C@H](C)CCCCC(=O)N[C@@H](CCN)C(=O)N[C@H](C(=O)N[C@@H](CCN)C(=O)N[C@H]1CCNC(=O)[C@H]([C@@H](C)O)NC(=O)[C@H](CCN)NC(=O)[C@H](CCN)NC(=O)[C@H]([C@@H](C)CC)NC(=O)[C@@H](Cc2ccccc2)NC(=O)[C@H](CCN)NC1=O)[C@@H](C)O [ile-PB1, isoleucine-B1] (X1-[Dab]T[Dab][Dab][Dab][dF]I[Dab][Dab]T; lactam 4-C)
[1]
  Time post dose up to which component could be quantified in ELF: up to 2 h

## Polymyxin B [PB]
[2]
  MIC: 4 µg/mL
[3]
  MIC: 2 µg/mL

## CC[C@H](C)CCCCC(=O)N[C@@H](CCN)C(=O)N[C@H](C(=O)N[C@@H](CCN)C(=O)N[C@H]1CCNC(=O)[C@H]([C@@H](C)O)NC(=O)[C@H](CCN)NC(=O)[C@H](CCN)NC(=O)[C@H](CC(C)C)NC(=O)[C@@H](Cc2ccccc2)NC(=O)[C@H](CCN)NC1=O)[C@@H](C)O [PB1, polymyxin B1] (X1-[Dab]T[Dab][Dab][Dab][dF]L[Dab][Dab]T; lactam 4-C)
[4]
  half-life: 19.2 min
[1]; ELF AUC0–6h, i.v. ca. 3 mg/kg, mice
  AUC ratio (liposome:solution) in epithelial lining fluid: 6.21

## CC(C)CCCCC(=O)N[C@@H](CCN)C(=O)N[C@H](C(=O)N[C@@H](CCN)C(=O)N[C@H]1CCNC(=O)[C@H]([C@@H](C)O)NC(=O)[C@H](CCN)NC(=O)[C@H](CCN)NC(=O)[C@H](CC(C)C)NC(=O)[C@@H](Cc2ccccc2)NC(=O)[C@H](CCN)NC1=O)[C@@H](C)O [PB2, polymyxin B2] ({Heptanoyl(6-Me)}-[Dab]T[Dab][Dab][Dab][dF]L[Dab][Dab]T; lactam 4-C)
[1]
  Time post dose up to which component could be quantified in ELF: up to 2 h

## CCCCCCCC(=O)N[C@@H](CCN)C(=O)N[C@H](C(=O)N[C@@H](CCN)C(=O)N[C@H]1CCNC(=O)[C@H]([C@@H](C)O)NC(=O)[C@H](CCN)NC(=O)[C@H](CCN)NC(=O)[C@H](CC(C)C)NC(=O)[C@@H](Cc2ccccc2)NC(=O)[C@H](CCN)NC1=O)[C@@H](C)O [PB3, polymyxin B3] (Octanoyl-[Dab]T[Dab][Dab][Dab][dF]L[Dab][Dab]T; lactam 4-C)
[1]
  Time post dose up to which component could be quantified in ELF: up to 2 h
